Test results: US20160075991A1, “Process for Preparing Starter Cultures of Lactic Acid Bacteria” (INSTITUT NATIONAL DE LA RECHERCHE, priority 1998, published 2016)

Assays:
[1] = tested on: Lactococcus lactis subsp. cremoris strain MG1363; experiment: Culturing in the presence of hemin with aeration (Example 1.1); assay type: cell-based; conditions: for pH: final pH of medium; for pH / OD600 nm / Viable bacterial count / Concentration of lactic acid: hemin 10 μg/ml, aeration, 24 h
Procedure: A laboratory medium (M17 supplemented with glucose in amounts, as indicated in the Table I, lactose being also usable) is inoculated with the Lactococcus lactic subsp. cremoris strain MG1363 in the form of a 1/100 or 1/1000 dilution of a saturated culture (prepared at 30° C. with no shaking). The inoculated medium contained or not hemin at a final concentration of 10 μg/ml (a 0.5 mg/ml stock solution is prepared by dissolving 100 mg of hemin in 2 ml of 5N NaOH, to which 198 ml of water is then added; the solution is autoclaved at 120° C. for 20 minutes). For bacteria grown in medium containing hemin, cultures were maintained at 30° C. with shaking (250 rotations per minute) in order to ensure oxygenation. Control cultures, without addition of hemin and without shaking, were grown at 30° C. in parallel. After 24 h of growth, aliquots are removed to measure the optical density at 600 nm (OD600 nm), the number of viable bacteria, the final pH and the concentration of lactic acid in the medium.

[2] = tested on: Lactococcus lactis subsp. cremoris strain MG1363; experiment: Survival of the lactic acid bacteria during storage at 30° C. (Example 2); assay type: cell-based; conditions: for Number of viable cells: hemin 10 μg/ml and aeration, 1% glucose M17
Procedure: (§1) A laboratory medium, i.e. M17 supplemented with 1% of glucose, is inoculated with Lactococcus lactis subsp. cremoris strain MG1363 in the form of a 1/1000 dilution of a saturated culture. The cultures are then divided into two equal parts, and hemin is added to one of these two cultures to give a final concentration of 10 μg/ml. […] Aliquots of the two cultures are removed regularly during the exponential growth phase in order to monitor viability, rate of growth and pH. After 24 h of growth, the cultures are placed (stored) in a 30° C. incubator without shaking, and aliquots are removed every 24 h in order to monitor the viability of the cells.

[3] = tested on: Lactococcus lactis subsp. cremoris strain MG1363; experiment: Survival of the lactic acid bacteria during storage at 4° C. (Example 3); assay type: cell-based; conditions: for Number of cells per ml: porphyrin compound and aeration, 1% glucose M17, storage at 4° C.
Procedure: as §1, with “cells. The Lactococcus lactis subsp. cremoris strain MG1363 was cultured as in the experiment described in Example 2, but the storage, which is carried out 24 h after inoculation, is at 4° C. instead of at 30° C.” for “cells.”

IL801 = experiment: Culture with hemin and agitation, different strains (Example 4); assay type: cell-based, L. lactis; conditions: strain IL801, hemin 10 μg/ml and agitation, M17 1% glucose, 24 h
Z106 = experiment: as above; assay type: cell-based, L. lactis; conditions: strain Z106, hemin 10 μg/ml and agitation, M17 1% glucose, 24 h
Procedure: Bacteria [MG1363 and 7 strains (IL1403, IL582, IL801, IL896, Z105, Z106, Z191) representative of L. lactis subgroups [TAILLEZ et al., System. Appl. Microbiol., 21, 530-538, (1998)] are cultured in M17 medium (1% glucose) inoculated (1/1000 dilution) with a saturated starter culture previously grown at 30° C. for 24 h. Hemin at a final concentration of 10 μg/ml is added to the inoculated medium before aerating the cultures by shaking (minimum 220 rpm). Control cultures are grown in parallel with no hemin in the medium, and no shaking. After 24 h., aliquots are taken and OD600 and final pH are measured.

[4] = glucose 5 g/l, dilution factor 100
[5] = glucose 5 g/l, dilution factor 1000
[6] = glucose 6 g/l, dilution factor 100
[7] = glucose 6 g/l, dilution factor 1000
[8] = glucose 7 g/l, dilution factor 100
[9] = glucose 7 g/l, dilution factor 1000
[10] = glucose 8 g/l, dilution factor 100
[11] = glucose 8 g/l, dilution factor 1000
[12] = glucose 9 g/l, dilution factor 100
[13] = glucose 9 g/l, dilution factor 1000
[14] = glucose 10 g/l, dilution factor 100
[15] = glucose 10 g/l, dilution factor 1000

For `C=CC1=C(C)c2cc3[n-]c(cc4nc(cc5[n-]c(cc1n2)c(C)c5C=C)C(C)=C4CCC(=O)O)c(CCC(=O)O)c3C.[Cl-].[Fe+3]` [hemin], the “production of lactic acid as share of the quantity of sugar added” value ([1]; cells cultured in the presence of hemin and oxygen) was “less than 10%”, the pH [1, 4] was 6.2 and the pH [1, 5] was 6.19. For the same compound, the pH [1, 6] was 6.25, the pH [1, 7] was 6.13 and the pH [1, 8] was 6.09. It also gave a pH [1, 9] of 6.07, a pH [1, 10] of 6.04 and a pH [1, 11] of 6.03. For the same compound, the pH [1, 12] was 6.02, the pH [1, 13] was 6.01 and the pH [1, 14] was 6.01. The pH [1, 15] was 5.99, the OD600 nm [1, 4] was 4.6 and the Viable bacterial count [1, 4] was 5.7 ×10^9. The “Concentration of lactic acid” value [1, 5] was 0.12 g/L, the OD600 nm [1, 5] was 4.5 and the Viable bacterial count [1, 5] was 5.7 ×10^9. For the same compound, the OD600 nm [1, 6] was 5.1, the Viable bacterial count [1, 6] was 6 ×10^9 and the “Concentration of lactic acid” value [1, 7] was 0.14 g/L. For the same compound, the OD600 nm [1, 7] was 5.5, the Viable bacterial count [1, 7] was 7.6 ×10^9 and the OD600 nm [1, 8] was 5.6. The Viable bacterial count [1, 8] was 9.1 ×10^9, the “Concentration of lactic acid” value [1, 9] was 0.19 g/L and the OD600 nm [1, 9] was 5.7. For the same compound, the Viable bacterial count [1, 9] was 8.6 ×10^9, the OD600 nm [1, 10] was 5.9 and the Viable bacterial count [1, 10] was 8.9 ×10^9. For the same compound, the “Concentration of lactic acid” value [1, 11] was 0.35 g/L, the OD600 nm [1, 11] was 5.4 and the Viable bacterial count [1, 11] was 9.3 ×10^9. For the same compound, the OD600 nm [1, 12] was 5.9, the Viable bacterial count [1, 12] was 9.2 ×10^9 and the “Concentration of lactic acid” value [1, 13] was 0.52 g/L. For the same compound, the OD600 nm [1, 13] was 5.8, the Viable bacterial count [1, 13] was 9.4 ×10^9 and the OD600 nm [1, 14] was 6.1. For the same compound, the Viable bacterial count [1, 14] was 10.1 ×10^9, the “Concentration of lactic acid” value [1, 15] was 0.98 g/L and the OD600 nm [1, 15] was 6.2. For the same compound, the Viable bacterial count [1, 15] was 9.6 ×10^9, the “pH of the culture (remains stable)” value ([1]; hemin and oxygen, whatever the concentration of glucose) was “approximately 6.1” and the “viability after one day of storage” value ([2]; 2 days after inoculation, storage at 30° C., hemin and oxygen) was “do not lose any viability”. For the same compound, the rate of survival ([2]; after 5 days of storage at 30° C., grown with aeration and hemin) was “approximately 10^−2”, the “Number of viable cells” value ([2]; 0 days after inoculation) was 1 × 10^6 and the “Number of viable cells” value ([2]; 1 day after inoculation) was 1.76 × 10^10. For the same compound, the “Number of viable cells” value ([2]; 2 days after inoculation, stored at 30° C.) was 1.71 × 10^10, the “Number of viable cells” value ([2]; 3 days after inoculation, stored at 30° C.) was 5.32 × 10^9 and the “Number of viable cells” value ([2]; 5 days after inoculation, stored at 30° C.) was 4.3 × 10^8. For the same compound, the “Number of viable cells” value ([2]; 6 days after inoculation, stored at 30° C.) was 8.5 × 10^7, the survival rate ([3]; after 2 months at 4° C., cultured with porphyrin compound under aeration) was roughly 5% and the “Number of cells per ml” value ([3]; 0 days after culture) was 4.3 × 10^9 cells per ml. The “Number of cells per ml” value ([3]; 1 day after culture) was 4.2 × 10^9 cells per ml, the “Number of cells per ml” value ([3]; 2 days after culture) was 3.8 × 10^9 cells per ml and the “Number of cells per ml” value ([3]; 3 days after culture) was 3.8 × 10^9 cells per ml. For the same compound, the “Number of cells per ml” value ([3]; 7 days after culture) was 4.2 × 10^9 cells per ml, the “Number of cells per ml” value ([3]; 8 days after culture) was 2.8 × 10^9 cells per ml and the “Number of cells per ml” value ([3]; 9 days after culture) was 2.2 × 10^9 cells per ml. For the same compound, the “Number of cells per ml” value ([3]; 10 days after culture) was 9.6 × 10^8 cells per ml, the “Number of cells per ml” value ([3]; 13 days after culture) was 5.0 × 10^8 cells per ml and the “Number of cells per ml” value ([3]; 15 days after culture) was 3.2 × 10^8 cells per ml. For the same compound, the “Number of cells per ml” value ([3]; 22 days after culture) was 3.0 × 10^8 cells per ml, the “Number of cells per ml” value ([3]; 28 days after culture) was 3.0 × 10^8 cells per ml and the “Number of cells per ml” value ([3]; 36 days after culture) was 2.9 × 10^8 cells per ml. For the same compound, the “Number of cells per ml” value ([3]; 43 days after culture) was 2.2 × 10^8 cells per ml, the “Number of cells per ml” value ([3]; 50 days after culture) was 1.8 × 10^8 cells per ml and the “Number of cells per ml” value ([3]; 57 days after culture) was 2.0 × 10^8 cells per ml. It also gave a pH (IL801; final pH) of 5.44, an OD500 nm (IL801) of 4.3 and a pH (Z106; final pH) of 5.74. For the same compound, the OD500 nm (Z106) was 4.5.
